Reference: patent publication US8901118B2, “Compounds and methods for kinase modulation, and indications therefor” (Plexxikon Inc., priority 2010, dated 2014)

Key:
CYP2C9 = CYP2C9 (Homo sapiens, UniProt P11712); assay: CYP2C9 inhibition (fluorescent substrate MFC); type: in vitro ADME; settings: read-out: Cyp IC50 2C9
Method in brief: (§1)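 Test compounds, 10-point 1:1 serial dilutions in NADPH-regenerating cofactor mix, were preincubated 10 min at 37° C before recombinant enzyme and fluorogenic substrate reactions at 37° C (CYP1A2 15 min; CYP2C9 45 min; CYP2C19, 2D6 30 min). Product fluorescence was read at 409 ex with 460 em (1A2, 2C19) or 530 em (2C9, 2D6), and IC50 fitted from signal versus concentration.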

CYP1A2 = target: T1, CYP1A2 (Homo sapiens, UniProt P05177); assay: CYP1A2 inhibition (fluorescent substrate CEC); type: in vitro ADME; settings: read-out: Cyp IC50 1A2
T1 sequence (P05177 1-516): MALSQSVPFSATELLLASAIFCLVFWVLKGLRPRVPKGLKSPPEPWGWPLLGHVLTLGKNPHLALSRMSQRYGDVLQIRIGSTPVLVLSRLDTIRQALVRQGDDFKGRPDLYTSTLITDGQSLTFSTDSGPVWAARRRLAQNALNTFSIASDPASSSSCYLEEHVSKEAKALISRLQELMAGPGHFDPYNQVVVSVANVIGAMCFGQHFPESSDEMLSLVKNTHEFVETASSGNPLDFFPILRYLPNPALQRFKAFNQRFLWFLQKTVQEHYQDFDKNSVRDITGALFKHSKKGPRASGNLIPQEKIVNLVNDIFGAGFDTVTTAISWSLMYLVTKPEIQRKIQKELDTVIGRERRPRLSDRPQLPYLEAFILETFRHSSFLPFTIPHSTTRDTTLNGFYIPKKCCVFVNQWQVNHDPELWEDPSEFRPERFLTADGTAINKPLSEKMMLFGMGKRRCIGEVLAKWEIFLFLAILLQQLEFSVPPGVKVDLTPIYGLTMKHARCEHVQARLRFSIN
Method in brief: as §1

BCR-NTRK2 BaF3 cells = target: T2, BCR-NTRK2 BaF3 cells (Homo sapiens, UniProt Q16620); assay: BaF3 BCR-NTRK2 cell proliferation assay (ATPlite); type: cell-based; settings: read-out: Inhibition of Cell Proliferation IC50, BCR/BaF3 TrkB
T2 construct: fused on or other part: P11274 (Breakpoint cluster region protein)
T2 sequence (Q16620 538-807): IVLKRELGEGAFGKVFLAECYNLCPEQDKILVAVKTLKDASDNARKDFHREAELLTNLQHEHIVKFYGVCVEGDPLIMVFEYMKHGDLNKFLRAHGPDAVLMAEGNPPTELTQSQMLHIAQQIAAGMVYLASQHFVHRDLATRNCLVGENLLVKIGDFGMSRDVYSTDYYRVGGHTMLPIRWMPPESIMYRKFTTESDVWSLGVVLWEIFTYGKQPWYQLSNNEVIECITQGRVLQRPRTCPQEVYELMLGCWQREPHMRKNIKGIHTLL
Method in brief: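 Growth inhibition over 3 days at 37 °C; IC50 from ATPlite luminescence, 8 concentrations (1:3 steps, max 10 μM). BaF3 fusion lines were tested without IL-3.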

Sequence of CYP2C9 (P11712 whole entry): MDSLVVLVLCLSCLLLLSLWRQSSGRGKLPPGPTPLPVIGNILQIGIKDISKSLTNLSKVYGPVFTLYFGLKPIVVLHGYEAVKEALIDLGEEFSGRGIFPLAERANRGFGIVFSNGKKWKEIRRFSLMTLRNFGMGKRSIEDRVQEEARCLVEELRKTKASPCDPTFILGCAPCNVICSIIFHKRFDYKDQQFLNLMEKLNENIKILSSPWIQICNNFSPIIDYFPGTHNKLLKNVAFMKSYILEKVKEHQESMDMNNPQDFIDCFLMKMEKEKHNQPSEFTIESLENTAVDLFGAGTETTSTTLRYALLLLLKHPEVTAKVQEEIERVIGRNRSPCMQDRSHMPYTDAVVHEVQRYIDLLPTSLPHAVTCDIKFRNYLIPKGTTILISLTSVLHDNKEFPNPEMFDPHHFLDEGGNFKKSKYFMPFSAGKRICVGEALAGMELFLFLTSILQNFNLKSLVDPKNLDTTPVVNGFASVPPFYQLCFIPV

Row | IC50 (CYP2C9) | IC50 (CYP1A2) | IC50 (BCR-NTRK2 BaF3 cells) | SMILES
1 | > 10 µM | > 10 µM | < 0.1 µM | CCc1ccc(Nc2ccc(Cc3c[nH]c4ncnc(OC)c34)c(F)n2)cn1 [Compound P-4007, (6-Ethyl-pyridin-3-yl)-[6-fluoro-5-(4-methoxy-7H-pyrrolo[2,3-d]pyrimidin-5-ylmethyl)-pyridin-2-yl]-amine]
2 | > 10 µM | > 10 µM | < 0.1 µM | CCOc1ccc(Nc2ccc(Cc3c[nH]c4ncnc(OCCOC)c34)c(F)n2)cn1 [Compound P-4008, (6-Ethoxy-pyridin-3-yl)-{6-fluoro-5-[4-(2-methoxy-ethoxy)-7H-pyrrolo[2,3-d]pyrimidin-5-ylmethyl]-pyridin-2-yl}-amine]
3 | > 10 µM | > 10 µM | < 0.01 µM | CCc1ccc(Nc2ccc(Cc3c[nH]c4ncnc(C)c34)c(F)n2)cn1 [Compound P-4009, (6-Ethyl-pyridin-3-yl)-[6-fluoro-5-(4-methyl-7H-pyrrolo[2,3-d]pyrimidin-5-ylmethyl)-pyridin-2-yl]-amine]
4 | > 10 µM | > 10 µM | < 0.1 µM | COc1ncnc2[nH]cc(Cc3ccc(Nc4ccc(C)nc4)nc3F)c12 [Compound P-4010, [6-Fluoro-5-(4-methoxy-7H-pyrrolo[2,3-d]pyrimidin-5-ylmethyl)-pyridin-2-yl]-(6-methyl-pyridin-3-yl)-amine]
5 | 5 to 10 µM | > 10 µM | < 1 µM | CCn1cc(Nc2ccc(Cc3c[nH]c4ncnc(OC)c34)c(F)n2)cn1 [Compound P-4011, (1-Ethyl-1H-pyrazol-4-yl)-[6-fluoro-5-(4-methoxy-7H-pyrrolo[2,3-d]pyrimidin-5-ylmethyl)-pyridin-2-yl]-amine]
6 | > 10 µM | > 10 µM | < 0.1 µM | CCOc1ncnc2[nH]cc(Cc3ccc(Nc4cnn(CC)c4)nc3F)c12 [Compound P-4012, [5-(4-Ethoxy-7H-pyrrolo[2,3-d]pyrimidin-5-ylmethyl)-6-fluoro-pyridin-2-yl]-(1-ethyl-1H-pyrazol-4-yl)-amine]
7 | < 5 µM | > 10 µM | < 1 µM | CCn1cc(Nc2ccc(Cc3c[nH]c4ncnc(C)c34)c(F)n2)cn1 [Compound P-4013, (1-Ethyl-1H-pyrazol-4-yl)-[6-fluoro-5-(4-methyl-7H-pyrrolo[2,3-d]pyrimidin-5-ylmethyl)-pyridin-2-yl]-amine]
8 | 5 to 10 µM | > 10 µM | < 1 µM | CCn1cc(Nc2ccc(Cc3c[nH]c4ncnc(OCCOC)c34)c(F)n2)cn1 [Compound P-4014, (1-Ethyl-1H-pyrazol-4-yl)-{6-fluoro-5-[4-(2-methoxy-ethoxy)-7H-pyrrolo[2,3-d]pyrimidin-5-ylmethyl]-pyridin-2-yl}-amine]
9 | > 10 µM | > 10 µM | < 1 µM | COCCOc1ncnc2[nH]cc(Cc3ccc(Nc4ccc(C)nc4)nc3F)c12 [Compound P-4015, {6-Fluoro-5-[4-(2-methoxy-ethoxy)-7H-pyrrolo[2,3-d]pyrimidin-5-ylmethyl]-pyridin-2-yl}-(6-methyl-pyridin-3-yl)-amine]
10 | > 10 µM | > 10 µM | < 0.01 µM | CCc1ccc(Nc2ccc(Cc3c[nH]c4ncnc(OCCOC)c34)c(F)n2)cn1 [Compound P-4016, (6-Ethyl-pyridin-3-yl)-{6-fluoro-5-[4-(2-methoxy-ethoxy)-7H-pyrrolo[2,3-d]pyrimidin-5-ylmethyl]-pyridin-2-yl}-amine]
11 | > 10 µM | > 10 µM | < 1 µM | CCOc1ncnc2[nH]cc(Cc3ccc(Nc4ccc(C)nc4)nc3F)c12 [Compound P-4017, [5-(4-Ethoxy-7H-pyrrolo[2,3-d]pyrimidin-5-ylmethyl)-6-fluoro-pyridin-2-yl]-(6-methyl-pyridin-3-yl)-amine]
12 | > 10 µM | > 10 µM | < 0.1 µM | CCOc1ncnc2[nH]cc(Cc3ccc(Nc4ccc(OC)nc4)nc3F)c12 [Compound P-4018, [5-(4-Ethoxy-7H-pyrrolo[2,3-d]pyrimidin-5-ylmethyl)-6-fluoro-pyridin-2-yl]-(6-methoxy-pyridin-3-yl)-amine]
13 | > 10 µM | > 10 µM | < 0.1 µM | COCCOc1ncnc2[nH]cc(Cc3ccc(Nc4ccc(OC)nc4)nc3F)c12 [Compound P-4019, {6-Fluoro-5-[4-(2-methoxy-ethoxy)-7H-pyrrolo[2,3-d]pyrimidin-5-ylmethyl]-pyridin-2-yl}-(6-methoxy-pyridin-3-yl)-amine]
14 | > 10 µM | > 10 µM | < 0.01 µM | COc1ccc(Nc2ccc(C(=O)c3c[nH]c4ncnc(C5CC5)c34)c(F)n2)cn1 [Compound P-4022, (4-cyclopropyl-7H-pyrrolo[2,3-d]pyrimidin-5-yl)-[2-fluoro-6-(6-methoxy-pyridin-3-ylamino)-pyridin-3-yl]-methanone]
15 | > 10 µM | > 10 µM | < 0.1 µM | COc1ccc(Nc2ccc(Cc3c[nH]c4ncnc(C5CC5)c34)c(F)n2)cn1 [Compound P-4023, [5-(4-cyclopropyl-7H-pyrrolo[2,3-d]pyrimidin-5-ylmethyl)-6-fluoro-pyridin-2-yl]-(6-methoxy-pyridin-3-yl)-amine]
16 | > 10 µM | > 10 µM | < 0.1 µM | CCOc1ccc(Nc2ccc(C(=O)c3c[nH]c4ncnc(OC)c34)c(F)n2)cn1 [Compound P-4024, [6-(6-Ethoxy-pyridin-3-ylamino)-2-fluoro-pyridin-3-yl]-(4-methoxy-7H-pyrrolo[2,3-d]pyrimidin-5-yl)-methanone]
17 | > 10 µM | > 10 µM | < 0.1 µM | CCOc1ncnc2[nH]cc(C(=O)c3ccc(Nc4ccc(OC)nc4)nc3F)c12 [Compound P-4025, (4-Ethoxy-7H-pyrrolo[2,3-d]pyrimidin-5-yl)-[2-fluoro-6-(6-methoxy-pyridin-3-ylamino)-pyridin-3-yl]-methanone]
18 | 5 to 10 µM | > 10 µM | < 0.01 µM | CCc1ccc(Nc2ccc(Cc3c[nH]c4ncnc(C5CC5)c34)c(F)n2)cn1 [Compound P-4028, [5-(4-Cyclopropyl-7H-pyrrolo[2,3-d]pyrimidin-5-ylmethyl)-6-fluoro-pyridin-2-yl]-(6-ethyl-pyridin-3-yl)-amine]
19 | > 10 µM | > 10 µM | < 0.01 µM | CCc1ccc(Nc2ccc(C(=O)c3c[nH]c4ncnc(C5CC5)c34)c(F)n2)cn1 [Compound P-4029, (4-Cyclopropyl-7H-pyrrolo[2,3-d]pyrimidin-5-yl)-[6-(6-ethyl-pyridin-3-ylamino)-2-fluoro-pyridin-3-yl]-methanone]
20 | > 10 µM | > 10 µM | < 0.1 µM | Cc1ccc(Nc2ccc(Cc3c[nH]c4ncnc(C5CC5)c34)c(F)n2)cn1 [Compound P-4030, [5-(4-Cyclopropyl-7H-pyrrolo[2,3-d]pyrimidin-5-ylmethyl)-6-fluoro-pyridin-2-yl]-(6-methyl-pyridin-3-yl)-amine]
21 | > 10 µM | > 10 µM | < 0.01 µM | Cc1ccc(Nc2ccc(C(=O)c3c[nH]c4ncnc(C5CC5)c34)c(F)n2)cn1 [Compound P-4031, (4-Cyclopropyl-7H-pyrrolo[2,3-d]pyrimidin-5-yl)-[2-fluoro-6-(6-methyl-pyridin-3-ylamino)-pyridin-3-yl]-methanone]
22 | 5 to 10 µM | 5 to 10 µM | < 0.1 µM | CCn1cc(Nc2ccc(Cc3c[nH]c4ncnc(C5CC5)c34)c(F)n2)cn1 [Compound P-4036, [5-(4-Cyclopropyl-7H-pyrrolo[2,3-d]pyrimidin-5-ylmethyl)-6-fluoro-pyridin-2-yl]-(1-ethyl-1H-pyrazol-4-yl)-amine]
23 | > 10 µM | > 10 µM | < 0.1 µM | Fc1nc(NC2CCC(F)(F)CC2)ccc1Cc1c[nH]c2ncnc(NCC(F)(F)F)c12 [Compound P-4128, 5-[[6-[(4,4-difluorocyclohexyl)amino]-2-fluoro-3-pyridyl]methyl]-N-(2,2,2-trifluoroethyl)-7H-pyrrolo[2,3-d]pyrimidin-4-amine]
24 | 5 to 10 µM | > 10 µM | < 0.1 µM | Fc1nc(NC2CCC(F)(F)CC2)ccc1Cc1c[nH]c2ncnc(NC3CC3)c12 [Compound P-4129, N-cyclopropyl-5-[[6-[(4,4-difluorocyclohexyl)amino]-2-fluoro-3-pyridyl]methyl]-7H-pyrrolo[2,3-d]pyrimidin-4-amine]
25 | > 10 µM | > 10 µM | < 0.01 µM | Fc1nc(Nc2ccc(C3CC3)nc2)ccc1Cc1c[nH]c2ncnc(NCC(F)(F)F)c12 [Compound P-4130, 5-[[6-[(6-cyclopropyl-3-pyridyl)amino]-2-fluoro-3-pyridyl]methyl]-N-(2,2,2-trifluoroethyl)-7H-pyrrolo[2,3-d]pyrimidin-4-amine]
